{
  "source": "ChEMBL document CHEMBL5465560",
  "about": "“Selectivity Literature for EUbOPEN Chemogenomic Library” (2024)",
  "key": {"[1]": {"target": "T1, Serine/threonine-protein kinase DCLK3 (Homo sapiens) (UniProt Q9C098)", "T1 sequence (whole entry)": "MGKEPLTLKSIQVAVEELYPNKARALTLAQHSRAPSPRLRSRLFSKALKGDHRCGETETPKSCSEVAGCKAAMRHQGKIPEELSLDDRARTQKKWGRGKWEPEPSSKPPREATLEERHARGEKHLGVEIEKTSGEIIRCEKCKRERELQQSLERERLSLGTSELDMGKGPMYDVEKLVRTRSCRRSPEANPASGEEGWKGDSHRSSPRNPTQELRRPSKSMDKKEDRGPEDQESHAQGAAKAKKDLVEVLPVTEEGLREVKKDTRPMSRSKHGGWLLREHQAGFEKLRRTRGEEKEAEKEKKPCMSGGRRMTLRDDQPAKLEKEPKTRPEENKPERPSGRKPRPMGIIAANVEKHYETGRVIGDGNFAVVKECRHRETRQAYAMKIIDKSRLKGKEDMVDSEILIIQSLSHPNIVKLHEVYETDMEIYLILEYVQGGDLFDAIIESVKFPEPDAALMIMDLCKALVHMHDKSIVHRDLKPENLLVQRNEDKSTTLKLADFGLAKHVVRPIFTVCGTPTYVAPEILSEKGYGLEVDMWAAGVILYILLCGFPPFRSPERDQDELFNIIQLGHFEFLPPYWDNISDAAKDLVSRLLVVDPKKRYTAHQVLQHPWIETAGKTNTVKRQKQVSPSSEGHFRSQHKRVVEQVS", "assay": "Selectivity interaction (KinomeScan (DiscoverX)) EUB0000229b DCLK3", "settings": "at 10 µM"}, "[2]": {"target": "Mitogen-activated protein kinase kinase kinase 10 (Homo sapiens) (UniProt Q02779)", "assay": "Selectivity interaction (LanthaScreen Eu Kinase Binding Assay) EUB0001632a MAP3K10", "settings": "at 10 µM"}, "[3]": {"target": "Serine/threonine-protein kinase PAK 6 (Homo sapiens) (UniProt Q9NQU5)", "sequence (Q9NQU5 whole entry, looked up)": "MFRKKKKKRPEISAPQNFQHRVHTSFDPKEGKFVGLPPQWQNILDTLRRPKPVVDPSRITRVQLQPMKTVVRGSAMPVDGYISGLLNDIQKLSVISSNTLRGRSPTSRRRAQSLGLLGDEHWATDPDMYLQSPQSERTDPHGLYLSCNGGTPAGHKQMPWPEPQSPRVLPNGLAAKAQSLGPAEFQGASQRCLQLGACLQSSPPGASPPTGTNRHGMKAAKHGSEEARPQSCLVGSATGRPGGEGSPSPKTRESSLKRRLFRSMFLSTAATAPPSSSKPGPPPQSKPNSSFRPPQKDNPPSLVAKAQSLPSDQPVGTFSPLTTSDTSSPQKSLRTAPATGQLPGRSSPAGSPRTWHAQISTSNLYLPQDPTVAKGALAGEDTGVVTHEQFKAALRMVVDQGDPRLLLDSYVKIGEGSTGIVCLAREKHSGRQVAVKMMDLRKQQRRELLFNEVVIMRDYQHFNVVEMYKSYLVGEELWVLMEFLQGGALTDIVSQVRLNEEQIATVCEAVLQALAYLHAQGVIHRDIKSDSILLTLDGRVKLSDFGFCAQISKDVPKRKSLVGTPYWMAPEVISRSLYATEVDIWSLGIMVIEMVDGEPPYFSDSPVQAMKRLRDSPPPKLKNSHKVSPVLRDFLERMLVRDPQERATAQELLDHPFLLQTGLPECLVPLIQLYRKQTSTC", "assay": "Selectivity interaction (KinomeScan (DiscoverX)) EUB0000666a PAK6", "settings": "at 10 µM"}, "[4]": {"assay": "Selectivity interaction (Calcium Channel (L) receptor assay: rat brain ) EUB0000877a CACNA1C"}, "[5]": {"test_system": "Leucine-rich repeat serine/threonine-protein kinase 2 (Homo sapiens), Q5S007 [G2019S]", "sequence (Q5S007 whole entry G2019S)": "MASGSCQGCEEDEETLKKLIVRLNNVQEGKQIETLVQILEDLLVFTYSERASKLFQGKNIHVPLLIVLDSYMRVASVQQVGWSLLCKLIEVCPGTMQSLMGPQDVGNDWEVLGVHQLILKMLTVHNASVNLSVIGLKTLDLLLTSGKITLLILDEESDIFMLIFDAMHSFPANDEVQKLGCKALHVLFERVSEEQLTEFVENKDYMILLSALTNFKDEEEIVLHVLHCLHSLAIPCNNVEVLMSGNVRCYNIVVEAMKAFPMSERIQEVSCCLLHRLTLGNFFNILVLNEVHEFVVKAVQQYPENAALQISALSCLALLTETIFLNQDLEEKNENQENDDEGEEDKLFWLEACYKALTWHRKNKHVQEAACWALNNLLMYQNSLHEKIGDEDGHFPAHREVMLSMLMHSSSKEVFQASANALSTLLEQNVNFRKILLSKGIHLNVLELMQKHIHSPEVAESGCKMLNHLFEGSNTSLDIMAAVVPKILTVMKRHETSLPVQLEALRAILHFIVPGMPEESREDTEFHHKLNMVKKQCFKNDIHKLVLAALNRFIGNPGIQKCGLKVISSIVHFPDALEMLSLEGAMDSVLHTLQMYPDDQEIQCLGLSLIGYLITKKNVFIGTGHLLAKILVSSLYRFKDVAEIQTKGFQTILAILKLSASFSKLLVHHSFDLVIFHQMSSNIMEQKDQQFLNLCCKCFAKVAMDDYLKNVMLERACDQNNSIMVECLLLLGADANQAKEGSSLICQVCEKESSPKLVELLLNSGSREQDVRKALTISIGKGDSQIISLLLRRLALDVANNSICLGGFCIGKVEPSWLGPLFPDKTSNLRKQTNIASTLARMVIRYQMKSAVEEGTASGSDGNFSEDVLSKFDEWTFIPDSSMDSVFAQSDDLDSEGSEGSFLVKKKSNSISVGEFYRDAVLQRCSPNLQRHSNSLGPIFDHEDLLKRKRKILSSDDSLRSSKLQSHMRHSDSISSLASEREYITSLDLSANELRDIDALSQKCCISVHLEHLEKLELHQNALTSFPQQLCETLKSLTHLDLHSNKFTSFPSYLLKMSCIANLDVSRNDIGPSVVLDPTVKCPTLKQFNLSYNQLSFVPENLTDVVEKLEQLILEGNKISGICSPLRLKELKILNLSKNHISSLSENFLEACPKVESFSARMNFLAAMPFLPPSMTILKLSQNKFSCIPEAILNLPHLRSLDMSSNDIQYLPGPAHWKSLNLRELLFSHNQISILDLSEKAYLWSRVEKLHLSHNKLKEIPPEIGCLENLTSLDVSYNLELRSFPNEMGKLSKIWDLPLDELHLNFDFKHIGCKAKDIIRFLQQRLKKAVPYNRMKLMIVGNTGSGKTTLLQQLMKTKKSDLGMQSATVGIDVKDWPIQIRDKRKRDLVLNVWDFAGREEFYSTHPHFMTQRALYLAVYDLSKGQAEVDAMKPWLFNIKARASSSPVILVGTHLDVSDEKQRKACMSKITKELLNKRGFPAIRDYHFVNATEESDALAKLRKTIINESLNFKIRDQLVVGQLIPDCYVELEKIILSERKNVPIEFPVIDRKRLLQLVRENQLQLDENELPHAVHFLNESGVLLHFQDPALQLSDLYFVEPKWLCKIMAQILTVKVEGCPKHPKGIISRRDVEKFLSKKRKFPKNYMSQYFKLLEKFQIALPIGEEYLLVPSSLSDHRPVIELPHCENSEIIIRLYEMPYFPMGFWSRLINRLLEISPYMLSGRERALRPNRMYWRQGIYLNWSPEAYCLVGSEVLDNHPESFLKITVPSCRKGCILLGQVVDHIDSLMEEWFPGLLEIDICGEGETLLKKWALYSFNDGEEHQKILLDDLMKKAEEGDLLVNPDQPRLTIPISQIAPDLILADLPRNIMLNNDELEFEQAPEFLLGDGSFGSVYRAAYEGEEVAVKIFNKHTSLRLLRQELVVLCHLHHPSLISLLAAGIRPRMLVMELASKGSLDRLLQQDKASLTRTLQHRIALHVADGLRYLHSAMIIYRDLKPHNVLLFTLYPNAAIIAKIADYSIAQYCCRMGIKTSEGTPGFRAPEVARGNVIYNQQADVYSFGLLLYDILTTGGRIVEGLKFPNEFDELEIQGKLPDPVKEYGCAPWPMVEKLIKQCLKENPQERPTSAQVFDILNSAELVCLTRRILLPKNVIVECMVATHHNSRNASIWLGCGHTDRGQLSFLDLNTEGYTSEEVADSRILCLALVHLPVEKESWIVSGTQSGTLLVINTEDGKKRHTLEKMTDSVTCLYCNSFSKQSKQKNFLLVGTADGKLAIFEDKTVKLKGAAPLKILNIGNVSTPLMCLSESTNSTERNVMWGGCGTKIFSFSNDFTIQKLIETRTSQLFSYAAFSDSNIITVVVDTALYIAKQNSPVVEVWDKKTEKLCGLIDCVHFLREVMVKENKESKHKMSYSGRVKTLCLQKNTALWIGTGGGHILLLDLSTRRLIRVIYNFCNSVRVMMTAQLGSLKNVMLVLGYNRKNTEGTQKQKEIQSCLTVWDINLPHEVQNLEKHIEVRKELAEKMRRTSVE", "assay": "(§1) Selectivity interaction (ProQinase) EUB0000171b LRRK2"}, "[6]": {"test_system": "Leucine-rich repeat serine/threonine-protein kinase 2 (Homo sapiens), Q5S007 [I2020T]", "sequence (Q5S007 whole entry I2020T)": "as the sequence (Q5S007 whole entry G2019S) above, with S2019G, I2020T counted along it", "assay": "as §1"}, "[7]": {"test_system": "Leucine-rich repeat serine/threonine-protein kinase 2 (Homo sapiens), Q5S007 [R1441C]", "sequence (Q5S007 whole entry R1441C)": "as the sequence (Q5S007 whole entry G2019S) above, with R1441C, S2019G counted along it", "assay": "as §1"}, "[8]": {"target": "Leucine-rich repeat serine/threonine-protein kinase 2 (Homo sapiens, UniProt Q5S007)", "sequence (Q5S007 whole entry)": "as the sequence (Q5S007 whole entry G2019S) above, with S2019G counted along it", "assay": "as §1"}, "[9]": {"target": "Ephrin type-A receptor 4 (Homo sapiens, UniProt P54764)", "sequence (P54764 whole entry)": "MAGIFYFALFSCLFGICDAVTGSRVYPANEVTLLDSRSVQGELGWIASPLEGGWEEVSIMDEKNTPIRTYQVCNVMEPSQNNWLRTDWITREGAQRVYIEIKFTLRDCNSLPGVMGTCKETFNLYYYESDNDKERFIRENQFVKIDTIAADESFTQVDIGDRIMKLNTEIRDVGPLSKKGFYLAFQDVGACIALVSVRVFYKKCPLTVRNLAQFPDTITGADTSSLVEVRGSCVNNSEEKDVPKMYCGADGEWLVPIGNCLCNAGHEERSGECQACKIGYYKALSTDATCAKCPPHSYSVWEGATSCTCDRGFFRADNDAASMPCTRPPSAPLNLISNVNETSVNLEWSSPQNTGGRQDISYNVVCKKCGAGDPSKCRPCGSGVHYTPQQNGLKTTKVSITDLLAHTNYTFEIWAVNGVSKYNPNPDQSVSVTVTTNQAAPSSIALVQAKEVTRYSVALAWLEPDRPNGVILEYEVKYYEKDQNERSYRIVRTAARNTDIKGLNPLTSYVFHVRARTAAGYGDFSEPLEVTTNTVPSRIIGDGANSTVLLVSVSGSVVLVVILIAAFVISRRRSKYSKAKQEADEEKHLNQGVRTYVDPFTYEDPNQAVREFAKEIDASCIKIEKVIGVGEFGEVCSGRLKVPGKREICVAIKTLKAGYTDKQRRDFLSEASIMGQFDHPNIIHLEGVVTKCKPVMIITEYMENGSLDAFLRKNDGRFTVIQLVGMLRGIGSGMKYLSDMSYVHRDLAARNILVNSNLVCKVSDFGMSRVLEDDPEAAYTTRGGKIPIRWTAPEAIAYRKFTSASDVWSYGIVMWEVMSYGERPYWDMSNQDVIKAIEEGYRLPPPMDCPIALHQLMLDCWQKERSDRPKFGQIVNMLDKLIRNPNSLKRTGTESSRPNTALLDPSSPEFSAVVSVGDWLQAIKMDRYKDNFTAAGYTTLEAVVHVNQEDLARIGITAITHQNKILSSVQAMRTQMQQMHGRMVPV", "assay": "Selectivity interaction (Kinase panel (Invitrogen)) EUB0000639a EPHA4", "settings": "at 200 nM"}, "[10]": {"target": "T2, Phosphatidylinositol 4,5-bisphosphate 3-kinase catalytic subunit delta isoform (Homo sapiens) (UniProt O00329)", "T2 sequence (whole entry)": "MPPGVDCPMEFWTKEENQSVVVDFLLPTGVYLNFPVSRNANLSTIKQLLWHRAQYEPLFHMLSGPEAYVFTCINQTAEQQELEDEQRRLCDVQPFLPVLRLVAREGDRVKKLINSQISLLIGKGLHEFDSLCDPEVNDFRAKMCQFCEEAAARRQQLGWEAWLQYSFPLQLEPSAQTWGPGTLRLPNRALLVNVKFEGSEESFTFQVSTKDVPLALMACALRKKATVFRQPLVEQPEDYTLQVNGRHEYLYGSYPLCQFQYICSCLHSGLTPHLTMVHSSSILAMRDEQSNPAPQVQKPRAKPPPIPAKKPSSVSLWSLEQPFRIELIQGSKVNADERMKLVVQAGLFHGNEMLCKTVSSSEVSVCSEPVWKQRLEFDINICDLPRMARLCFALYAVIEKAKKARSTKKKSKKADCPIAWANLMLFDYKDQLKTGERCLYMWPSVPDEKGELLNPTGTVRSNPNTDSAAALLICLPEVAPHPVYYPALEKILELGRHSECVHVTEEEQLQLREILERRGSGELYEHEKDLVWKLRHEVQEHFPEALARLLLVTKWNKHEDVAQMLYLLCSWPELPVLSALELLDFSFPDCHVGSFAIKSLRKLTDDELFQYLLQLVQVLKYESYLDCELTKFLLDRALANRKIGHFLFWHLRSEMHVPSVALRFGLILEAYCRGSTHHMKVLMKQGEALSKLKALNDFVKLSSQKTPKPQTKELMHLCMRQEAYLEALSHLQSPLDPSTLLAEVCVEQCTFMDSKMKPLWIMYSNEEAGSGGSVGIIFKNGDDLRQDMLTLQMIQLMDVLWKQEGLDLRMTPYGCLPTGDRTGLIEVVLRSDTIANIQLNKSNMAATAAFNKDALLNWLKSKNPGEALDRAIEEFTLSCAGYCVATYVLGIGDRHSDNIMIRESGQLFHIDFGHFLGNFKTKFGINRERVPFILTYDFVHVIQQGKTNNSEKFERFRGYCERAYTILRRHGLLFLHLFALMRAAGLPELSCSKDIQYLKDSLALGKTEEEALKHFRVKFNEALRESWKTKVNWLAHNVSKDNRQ", "assay": "Selectivity interaction (Kinase panel (Invitrogen)) EUB0000639a PIK3CD", "settings": "at 200 nM"}, "[11]": {"target": "T3, Dual specificity tyrosine-phosphorylation-regulated kinase 2 (Homo sapiens) (UniProt Q92630)", "T3 sequence (whole entry)": "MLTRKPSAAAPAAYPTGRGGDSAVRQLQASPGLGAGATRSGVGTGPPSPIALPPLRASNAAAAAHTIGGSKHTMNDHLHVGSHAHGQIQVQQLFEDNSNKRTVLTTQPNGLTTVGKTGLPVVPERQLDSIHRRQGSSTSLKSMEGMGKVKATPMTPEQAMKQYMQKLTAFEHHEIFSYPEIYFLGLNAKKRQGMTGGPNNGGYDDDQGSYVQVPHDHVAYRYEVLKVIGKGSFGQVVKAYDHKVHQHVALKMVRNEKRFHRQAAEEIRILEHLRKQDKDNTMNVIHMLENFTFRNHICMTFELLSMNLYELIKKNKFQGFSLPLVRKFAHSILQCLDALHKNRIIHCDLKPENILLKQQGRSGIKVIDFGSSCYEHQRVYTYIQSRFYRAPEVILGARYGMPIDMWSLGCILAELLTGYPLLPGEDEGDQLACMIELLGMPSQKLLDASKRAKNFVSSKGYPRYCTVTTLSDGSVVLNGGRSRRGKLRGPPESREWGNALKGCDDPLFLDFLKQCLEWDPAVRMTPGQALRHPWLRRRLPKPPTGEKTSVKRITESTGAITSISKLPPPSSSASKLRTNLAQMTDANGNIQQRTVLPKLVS", "assay": "Selectivity interaction (KinomeScan (DiscoverX)) EUB0000655a DYRK2", "settings": "at 10 µM"}, "[12]": {"target": "Misshapen-like kinase 1 (Homo sapiens, UniProt Q8N4C8)", "assay": "Selectivity interaction (KinomeScan (DiscoverX)) EUB0000655a MINK1", "settings": "at 10 µM"}},
  "data": [
    {"smiles": "COc1cc(N(C)c2ccnc3ccc(C(F)(F)F)cc23)cc(OC)c1OC", "values": [
      {"measurement": "% binding", "setting": "[1]", "value": 97, "unit": "%"}
    ]},
    {"smiles": "Cn1cc(-n2cnc3c(NCc4nc5cc(Cl)c(Cl)cc5[nH]4)nc(N4CCOCC4)nc32)cn1", "values": [
      {"measurement": "% of inhibition", "setting": "[2]", "value": -1.64, "unit": "%"}
    ]},
    {"smiles": "O=C(NOC[C@H](O)CO)c1ccc(F)c(F)c1Nc1ccc(I)cc1F", "values": [
      {"measurement": "% of control", "setting": "[3]", "value": 94, "unit": "%"}
    ]},
    {"smiles": "CCC(=O)N1CC[C@H](Nc2ncnc3c2CN(c2cnc(OC)c(C(F)(F)F)c2)CC3)C1", "note": "[LENIOLISIB]", "values": [
      {"measurement": "IC50", "setting": "[4]", "value": "> 30", "unit": "µM"}
    ]},
    {"smiles": "C=CC(=O)Nc1cccc(C(=O)Nc2ccc(Nc3cc(-c4[nH]c(SC)nc4C)ccn3)cc2)c1", "values": [
      {"measurement": "% of control", "setting": "[5]; at 1 µM", "value": 72, "unit": "%"},
      {"measurement": "% of control", "setting": "[5]; at 5 µM", "value": 52, "unit": "%"},
      {"measurement": "% of control", "setting": "[6]; at 1 µM", "value": 71, "unit": "%"},
      {"measurement": "% of control", "setting": "[6]; at 5 µM", "value": 49, "unit": "%"},
      {"measurement": "% of control", "setting": "[7]; at 1 µM", "value": 80, "unit": "%"},
      {"measurement": "% of control", "setting": "[7]; at 5 µM", "value": 51, "unit": "%"},
      {"measurement": "% of control", "setting": "[8]; at 1 µM", "value": 77, "unit": "%"},
      {"measurement": "% of control", "setting": "[8]; at 5 µM", "value": 47, "unit": "%"}
    ]},
    {"smiles": "CC[C@@H]1[C@H](F)C(=O)N[C@@H]1COc1nccc2cc(C(N)=O)c(OC)cc12", "note": "[ZIMLOVISERTIB]", "values": [
      {"measurement": "% of inhibition", "setting": "[9]", "value": 6.54, "unit": "%"},
      {"measurement": "% of inhibition", "setting": "[10]", "value": 1.5, "unit": "%"}
    ]},
    {"smiles": "CN(C)CCOc1ccc(-c2nc(-c3ccncc3)c(-c3ccc4c(c3)CC/C4=N\\O)[nH]2)cc1", "values": [
      {"measurement": "% of control", "setting": "[11]", "value": 98, "unit": "%"},
      {"measurement": "% of control", "setting": "[12]", "value": 6, "unit": "%"}
    ]}
  ]
}
